{"source": "patent US20160115540A1", "about": "“PRODRUGS AND DRUGS” (Biogen MA Inc., priority 2013, published 2016)", "system": "hippocampus", "experiment": "Transcriptional profiling on Affymetrix GeneChips, single dose, naïve mice: hippocampus", "type": "in vivo, C57BL/6 mice", "conditions": "for Tmtc3 (1458305_PM_at) differential expression: 7 hr; for Number of differentially expressed genes identified: Hippocampus: Naïve, Single Dose", "description": "Treated mice were sacrificed at 2, 7, or 12 hours. Tissues (liver, spleen, kidney, jejunum, cortex, hippocampus, striatum and whole blood) were collected and analyzed by transcriptional profiling on mouse Affymetrix GeneChips.\nTissues (liver, spleen, kidney, jejunum, cortex, hippocampus, striatum and whole blood) were collected and analyzed by transcriptional profiling on mouse Affymetrix GeneChips.\nAnimals were exposed to CO2 and whole blood collected via cardiac puncture. Two 100 μl aliquots of whole blood were collected in 1.5 mL microcentrifuge tubes and snap frozen in liquid nitrogen. Peripheral (liver, spleen, kidney and jejunum) and CNS brain (cerebellum, hippocampus, striatum and cortex) tissues were harvested and snap frozen in liquid nitrogen, with special care taken to collect tissues of similar size and from the same location. All samples were stored at −80° C. until RNA extraction was conducted.\nFor RNA preparation, frozen tissues were placed in 2 mL RNAse-free 96-well blocks with 1.5 mL QIAzol Lysis Reagent (QIAgen) and a 3.2 mm stainless steel bead (BioSpec Products, Bartlesville, Okla.). Tissues were disrupted for four cycles of 45 seconds in a Mini-Beadbeater (Biospec Products). RNA was extracted in chloroform and the aqueous phase was mixed with an equal volume of 70% ethanol. Extracted RNA was applied to RNeasy 96 plates and purified by the spin method according to the manufacturer's protocol (RNeasy 96 Universal Tissue Protocol, QIAgen, Hilden Germany).\nAutomated sample amplifications and biotin labelings were carried out using the NuGEN Ovation RNA Amplification system V2 (Cat #3100), Ovation WB reagent (Cat #1300) and Encore Biotin module (Cat #4200) (NuGEN Technologies, Inc, San Carlos, Calif.) according to manufacturer's recommendations using an Arrayplex automated liquid handler (Beckman Coulter, Indianapolis, Ind.). Two micrograms of biotin labeled sscDNA probe were hybridized to Affymetrix GeneChip Affymetrix HT_MG-430_PM plate arrays with modified conditions as described in Allaire et al. Washing and staining of the hybridized arrays were completed as described in the GeneChip Expression analysis technical manual for HT plate arrays using the Genechip® Array Station (Affymetrix, Santa Clara, Calif.) with modifications as described in Allaire et al. The processed GeneChip® plate arrays were scanned using GeneTitan scanner (Affymetrix, Santa Clara, Calif.).\nAffymetrix scans were subject to quality control (QC) measures. These tests included a visual inspection of the distribution of raw signal intensities and an assessment of RNA degradation, relative log expression (RLE), and normalized unsealed standard error (NUSE). All sample scans that passed these QC metrics were included in the analysis.\nAll CEL files were subjected to GC-content-based Robust Multi-array Average (GCRMA) normalization (version 2.20.0) (Irizarry R A, et al. Nucleic Acids Res 2003; 31:e15; Li C, et al. Genome Biol 2001; 2:[…]0032). Expression levels were log (base 2) transformed.\nAll calculations and analyses were carried out using R (version 2.11.1) and Bioconductor computational tools (Gentleman R. Springer Science+Business Media 2005).", "key": {"[1]": {"conditions": "100 mpk, vs Vehicle, 2 h after last dosing"}, "[2]": {"conditions": "100 mpk, vs Vehicle, 7 h after last dosing"}, "[3]": {"conditions": "100 mpk, vs Vehicle, 12 h after last dosing"}, "[4]": {"conditions": "hippocampus, 100DMF-vs-100MMF, 2 h"}, "[5]": {"conditions": "hippocampus, 100DMF-vs-Veh, 7 h"}, "[6]": {"conditions": "hippocampus, 100MMF-vs-Veh, 2 h"}, "[7]": {"conditions": "hippocampus, 100MMF-vs-Veh, 7 h"}, "[8]": {"conditions": "hippocampus, 2 hr after single 100 mg/kg oral dose"}}, "note": "Where a name gives a salt, the structure may show the parent alone."}
{"smiles": "COC(=O)/C=C/C(=O)OC", "note": "[DMF, dimethyl fumarate]", "values": [{"measurement": "Number of genes, DMF Only / MMF Only", "setting": "Hippocampus", "result": 0}, {"measurement": "Tmtc3 (1458305_PM_at) differential expression", "setting": "Hippocampus", "result": "−2.38"}, {"measurement": "Number of differentially expressed genes identified: Hippocampus", "setting": "100 mpk DMF-vs-100 mpk MMF, 2 h after last dosing", "result": 2}, {"measurement": "Number of differentially expressed genes identified: Hippocampus", "setting": "100 mpk DMF-vs-100 mpk MMF, 7 h after last dosing", "result": 0}, {"measurement": "Number of differentially expressed genes identified: Hippocampus", "setting": "100 mpk DMF-vs-100 mpk MMF, 12 h after last dosing", "result": 0}, {"measurement": "Number of differentially expressed genes identified: Hippocampus", "setting": "[1]", "result": 0}, {"measurement": "Number of differentially expressed genes identified: Hippocampus", "setting": "[2]", "result": 2}, {"measurement": "Number of differentially expressed genes identified: Hippocampus", "setting": "[3]", "result": 0}, {"measurement": "FC Dio2 (1418938_PM_at)", "setting": "[4]", "result": 1.58}, {"measurement": "FC Tmtc3 (1458305_PM_at)", "setting": "[4]", "result": "−1.88"}, {"measurement": "differentially expressed genes", "setting": "hippocampus, 100DMF-vs-100MMF, 7 h", "result": "None"}, {"measurement": "differentially expressed genes", "setting": "hippocampus, 100DMF-vs-100MMF, 12 h", "result": "None"}, {"measurement": "differentially expressed genes", "setting": "hippocampus, 100DMF-vs-Veh, 2 h", "result": "None"}, {"measurement": "FC Tmtc3 (1458305_PM_at)", "setting": "[5]", "result": "−2.38"}, {"measurement": "FC probe 1443353_PM_at", "setting": "[5]", "result": "−1.84"}, {"measurement": "differentially expressed genes", "setting": "hippocampus, 100DMF-vs-Veh, 12 h", "result": "None"}]}
{"smiles": "COC(=O)/C=C/C(=O)O", "note": "[MMF, monomethyl fumarate]", "values": [{"measurement": "Number of genes, DMF Only / MMF Only", "setting": "Hippocampus", "result": 6}, {"measurement": "Dnajc18 (1425077_PM_at) differential expression", "setting": "Hippocampus, 2 hr", "result": "−1.58"}, {"measurement": "Heatr5b (1438085_PM_at) differential expression", "setting": "Hippocampus, 2 hr", "result": "−1.56"}, {"measurement": "Kcnq3 (1458421_PM_at) differential expression", "setting": "Hippocampus, 2 hr", "result": "−1.50"}, {"measurement": "Kpna4 (1417975_PM_at) differential expression", "setting": "Hippocampus, 2 hr", "result": "−1.51"}, {"measurement": "Nfat5 (1426029_PM_a_at) differential expression", "setting": "Hippocampus, 2 hr", "result": "−1.51"}, {"measurement": "Srgap2 (1434407_PM_at) differential expression", "setting": "Hippocampus, 2 hr", "result": "−1.50"}, {"measurement": "Tmtc3 (1458305_PM_at) differential expression", "setting": "Hippocampus", "result": "−2.40"}, {"measurement": "Number of differentially expressed genes identified: Hippocampus", "setting": "[1]", "result": 3}, {"measurement": "Number of differentially expressed genes identified: Hippocampus", "setting": "[2]", "result": 2}, {"measurement": "Number of differentially expressed genes identified: Hippocampus", "setting": "[3]", "result": 1}, {"measurement": "FC Heatr5b (1438085_PM_at)", "setting": "[6]", "result": "−1.56"}, {"measurement": "FC Kpna4 (1417975_PM_at)", "setting": "[6]", "result": "−1.51"}, {"measurement": "FC Srgap2 (1434407_PM_at)", "setting": "[6]", "result": "−1.50"}, {"measurement": "FC Tmtc3 (1458305_PM_at)", "setting": "[7]", "result": "−2.40"}, {"measurement": "FC probe 1443353_PM_at", "setting": "[7]", "result": "−1.74"}, {"measurement": "FC LOC100502895 (1435119_PM_at)", "setting": "hippocampus, 100MMF-vs-Veh, 12 h", "result": 1.66}, {"measurement": "Dnajc18 mRNA fold change vs vehicle", "setting": "[8]", "result": "−1.58"}, {"measurement": "Heatr5b mRNA fold change vs vehicle", "setting": "[8]", "result": "−1.56"}, {"measurement": "Kcnq3 mRNA fold change vs vehicle", "setting": "[8]", "result": "−1.50"}, {"measurement": "Kpna4 mRNA fold change vs vehicle", "setting": "[8]", "result": "−1.51"}, {"measurement": "Nfat5 mRNA fold change vs vehicle", "setting": "[8]", "result": "−1.51"}, {"measurement": "Srgap2 mRNA fold change vs vehicle", "setting": "[8]", "result": "−1.50"}, {"measurement": "Tmtc3 mRNA fold change vs vehicle", "setting": "hippocampus, 7 hr after single 100 mg/kg oral dose", "result": "−2.40"}]}
